In this assay the target is T1, bovine rod cGMP-gated channel alpha subunit (retinal CNG channel) (Bos taurus, UniProt Q00194).
T1 sequence (Q00194 1-690): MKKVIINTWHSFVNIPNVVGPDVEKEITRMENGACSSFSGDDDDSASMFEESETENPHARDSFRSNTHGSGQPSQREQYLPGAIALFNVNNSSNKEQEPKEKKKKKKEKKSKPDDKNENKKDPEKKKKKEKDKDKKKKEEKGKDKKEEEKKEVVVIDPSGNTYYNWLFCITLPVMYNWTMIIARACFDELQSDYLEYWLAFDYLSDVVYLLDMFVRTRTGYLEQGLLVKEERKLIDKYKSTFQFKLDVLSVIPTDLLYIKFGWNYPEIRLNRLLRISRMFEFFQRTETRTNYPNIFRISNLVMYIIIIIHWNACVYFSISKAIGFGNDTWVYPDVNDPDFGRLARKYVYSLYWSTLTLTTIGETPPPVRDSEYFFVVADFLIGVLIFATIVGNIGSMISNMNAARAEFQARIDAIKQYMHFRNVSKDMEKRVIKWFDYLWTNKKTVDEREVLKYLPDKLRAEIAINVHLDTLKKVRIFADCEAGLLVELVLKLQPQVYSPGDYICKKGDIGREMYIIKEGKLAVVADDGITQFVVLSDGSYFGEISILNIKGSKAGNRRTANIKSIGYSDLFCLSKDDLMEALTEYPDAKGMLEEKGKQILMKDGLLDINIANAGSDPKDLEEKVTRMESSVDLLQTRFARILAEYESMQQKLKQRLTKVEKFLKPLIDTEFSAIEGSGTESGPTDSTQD
Type of assay: cell-based.

For `NCCCNCCCCNCCCN` [spermine], the affinity, expressed as Kd, was 510 ± 40 nM.

The Kd is the free concentration of one partner at which half of the binding sites on the other are occupied at equilibrium, for simple one-to-one binding. Read a low Kd as higher affinity.

Values taken from paper PMC2232895 (The Journal of General Physiology, 2000).
